Where two headings read alike, the source gives them in different places.
Experiments:
Assay type in all cases: biochemical, Arthrobacter globiformis M6
[1] = test system: CMM-forming enzyme; assay: Action on various saccharides (substrate specificity, TLC); set-up: key: “−” means “Not changed”; “+” means “Spot of substrate is slightly decreased and other products are detected”; “++” means “Spot of substrate is markedly decreased and other products are detected”; “+++” means “Spot of substrate is virtually disappeared and other products are detected”; details: substrate 2% (w/v), one unit/g-substrate enzyme, 40° C., pH 6.0, 24 hours, TLC before and after reaction
Procedure: Substrate specificity of CMM-forming enzyme of the present invention was investigated using various saccharides as substrates. Substrate solutions were prepared by dissolving maltose, maltotriose, maltotetraose, maltopentaose, maltohexaose, maltoheptaose, neotrehalose, trehalose, kojibiose, nigerose, […] isomaltose, isomaltotriose, panose, isopanose, maltitol, maltotriitol, α-, β- or γ-cyclodextrin, amylose, soluble starch, glycogen, pullulan or dextran into water. Each substrate solution was admixed with acetate buffer (pH 6.0) and CaCl2 to give final concentrations of 20 mM and 1 mM, respectively. […] Substrate concentration was set to 2% (w/v) and followed by the enzyme reaction at 40° C. and pH 6.0 for 24 hours. Action and the specificity of the enzyme on these saccharides were confirmed by analyzing the reaction mixture before and after the reaction by TLC described in Experiment 1.

[2] = test system: CMM-forming enzyme; assay: Formation of CMM from various substrates; details: substrate 1.0% (w/v), one unit/g-substrate enzyme, 40° C., pH 6.0, 48 hours, HPLC
Procedure: Formation of CMM by the action of CMM-forming enzyme of the present invention was investigated using various saccharides as substrates. Maltotriose, maltotetraose, maltopentaose, maltohexaose, amylose, soluble starch, “[…] #100”, a partial starch hydrolyzate commercialized by Matsutani Chemical Industries Co., Ltd., Hyogo, Japan, or glycogen from corn, commercialized by Q.P. Corporation, Tokyo, Japan, was prepared into a solution. […] The reaction was stopped by heating the reaction mixture at 100° C. for 10 min. After treating the reaction mixture with α-glucosidase and glucoamylase by the same manner in Experiment 1, the amount of CMM was determined by HPLC and CMM content of the reaction mixture was measured.

[3] = test system: CMM-forming enzyme; assay: Effects of metal ions on the enzyme activity; details: for Effect on CMM-forming enzyme activity: 1 mM
[4] = CMM-forming enzyme activity in the presence of 1 mM metal salt, None = 100

OC[C@H]1O[C@@H]2O[C@H]3[C@H](O)[C@@H](O)[C@@H](O[C@H]4[C@H](O)[C@@H](O)[C@@H](O[C@H]5[C@H](O)[C@@H](O)[C@@H](O[C@H]6[C@H](O)[C@@H](O)[C@@H](O[C@H]7[C@H](O)[C@@H](O)[C@@H](O[C@H]8[C@H](O)[C@@H](O)[C@@H](O[C@H]1[C@H](O)[C@H]2O)O[C@@H]8CO)O[C@@H]7CO)O[C@@H]6CO)O[C@@H]5CO)O[C@@H]4CO)O[C@@H]3CO [β-Cyclodextrin, β-cyclodextrin]
Action [1]: −

soluble starch
Action [1]: +++
CMM content (%) [2]: 31.4%
CMM content (%) ([2]; listed as soluble starch): about 30%

OC[C@H]1O[C@@H]2O[C@H]3[C@H](O)[C@@H](O)[C@@H](O[C@H]4[C@H](O)[C@@H](O)[C@@H](O[C@H]5[C@H](O)[C@@H](O)[C@@H](O[C@H]6[C@H](O)[C@@H](O)[C@@H](O[C@H]7[C@H](O)[C@@H](O)[C@@H](O[C@H]8[C@H](O)[C@@H](O)[C@@H](O[C@H]9[C@H](O)[C@@H](O)[C@@H](O[C@H]1[C@H](O)[C@H]2O)O[C@@H]9CO)O[C@@H]8CO)O[C@@H]7CO)O[C@@H]6CO)O[C@@H]5CO)O[C@@H]4CO)O[C@@H]3CO [γ-Cyclodextrin, γ-cyclodextrin]
Action [1]: −

OC[C@H]1O[C@H](O[C@H]2O[C@H](CO)[C@@H](O)[C@H](O)[C@H]2O)[C@H](O)[C@@H](O)[C@@H]1O [Trehalose, trehalose]
Action [1]: −

[Cl][Fe]([Cl])[Cl] [FeCl3]
Effect on CMM-forming enzyme activity [3]: inhibited
Relative activity (%) [3, 4]: 32%

[Cl-].[Cl-].[Zn+2] [ZnCl2]
Relative activity (%) [3, 4]: 73%

OC[C@H]1O[C@H](OC[C@H]2OC(O)[C@H](O)[C@@H](O)[C@@H]2O)[C@H](O)[C@@H](O)[C@@H]1O (some centres unmarked) [Isomaltose, isomaltose]
Action [1]: −

OC[C@H]1O[C@@H]2O[C@H]3[C@H](O)[C@@H](O)[C@@H](O[C@H]4[C@H](O)[C@@H](O)[C@@H](O[C@H]5[C@H](O)[C@@H](O)[C@@H](O[C@H]6[C@H](O)[C@@H](O)[C@@H](O[C@H]7[C@H](O)[C@@H](O)[C@@H](O[C@H]1[C@H](O)[C@H]2O)O[C@@H]7CO)O[C@@H]6CO)O[C@@H]5CO)O[C@@H]4CO)O[C@@H]3CO [α-Cyclodextrin, α-cyclodextrin]
Action [1]: −

maltotriose
Action [1]: +
CMM content (%) [2]: 0.6%
CMM content (%) ([2]; listed as maltotriose): about 0.6%

pullulan
Action [1]: −

[Cl][Fe][Cl] [FeCl2]
Relative activity (%) [3, 4]: 95%

[Cl][Mn][Cl] [MnCl2]
Relative activity (%) [3, 4]: 97%

[Cl][Ni][Cl] [NiCl2]
Relative activity (%) [3, 4]: 90%

maltohexaose
Action [1]: +++
CMM content (%) [2]: 41.6%

amylose
Action [1]: +++
CMM content (%) [2]: 41.8%
CMM content (%) ([2]; listed as amylose): about 42%

[Cl-].[Cl-].[Mg+2] [MgCl2]
Relative activity (%) [3, 4]: 98%

maltopentaose
Action [1]: +++
CMM content (%) [2]: 24.4%

[Ca+2].[Cl-].[Cl-] [CaCl2]
Relative activity (%) [3, 4]: 99%

OC[C@H]1O[C@H](O[C@H]2[C@H](O)[C@@H](CO)OC(O)[C@@H]2O)[C@H](O)[C@@H](O)[C@@H]1O (some centres unmarked) [Nigerose, nigerose]
Action [1]: −

glycogen
Action [1]: ++
CMM content (%) [2]: 29.5%
CMM content (%) ([2]; listed as glycogen): about 30%

[Cl][Pb][Cl] [PbCl2]
Effect on CMM-forming enzyme activity [3]: inhibited
Relative activity (%) [3, 4]: 36%

[Cl-].[Cl-].[Co+2] [CoCl2]
Relative activity (%) [3]: 95%

[Cl][Hg][Cl] [HgCl2]
Effect on CMM-forming enzyme activity [3]: remarkably inhibited
Relative activity (%) [3, 4]: 2%

OC[C@H]1O[C@H](O[C@H]2[C@H](O)[C@@H](O)[C@@H](O[C@H]3[C@H](O)[C@@H](O)[C@@H](O[C@H]4[C@H](O)[C@@H](O)C(O)O[C@@H]4CO)O[C@@H]3CO)O[C@@H]2CO)[C@H](O)[C@@H](O)[C@@H]1O (some centres unmarked) [Maltotetraose, maltotetraose]
Action [1]: +++
CMM content (%) [2]: 27.3%

OC[C@@H](O)[C@@H](O[C@H]1O[C@H](CO)[C@@H](O[C@H]2O[C@H](CO)[C@@H](O)[C@H](O)[C@H]2O)[C@H](O)[C@H]1O)[C@H](O)[C@@H](O)CO [Maltotriitol, maltotriitol]
Action [1]: −

[Cl][Al]([Cl])[Cl] [AlCl3]
Effect on CMM-forming enzyme activity [3]: inhibited
Relative activity (%) [3, 4]: 13%

[Cl-].[Cl-].[Sr+2] [SrCl2]
Relative activity (%) [3, 4]: 90%

[Cl][Cu][Cl] [CuCl2]
Effect on CMM-forming enzyme activity [3]: remarkably inhibited
Relative activity (%) [3, 4]: 1%

maltoheptaose
Action [1]: +++
CMM content (%) [2]: 36.6%

OC[C@H]1O[C@H](OC[C@H]2O[C@H](OC[C@H]3OC(O)[C@H](O)[C@@H](O)[C@@H]3O)[C@H](O)[C@@H](O)[C@@H]2O)[C@H](O)[C@@H](O)[C@@H]1O (some centres unmarked) [Isomaltotriose, isomaltotriose]
Action [1]: −

OC[C@H]1O[C@H](O[C@H]2C(O)O[C@H](CO)[C@@H](O)[C@@H]2O)[C@H](O)[C@@H](O)[C@@H]1O (some centres unmarked) [Kojibiose, kojibiose]
Action [1]: −

OC[C@H]1O[C@H](OC[C@H]2O[C@H](O[C@H]3[C@H](O)[C@@H](O)C(O)O[C@@H]3CO)[C@H](O)[C@@H](O)[C@@H]2O)[C@H](O)[C@@H](O)[C@@H]1O (some centres unmarked) [Panose, panose]
Action [1]: −

[Ba+2].[Cl-].[Cl-] [BaCl2]
Relative activity (%) [3, 4]: 90%

OC[C@H]1O[C@H](O[C@H]2[C@H](O)[C@@H](O)[C@@H](OC[C@H]3OC(O)[C@H](O)[C@@H](O)[C@@H]3O)O[C@@H]2CO)[C@H](O)[C@@H](O)[C@@H]1O (some centres unmarked) [Isopanose, isopanose]
Action [1]: −

dextran
Action [1]: −

OC[C@H]1O[C@@H](O[C@H]2O[C@H](CO)[C@@H](O)[C@H](O)[C@H]2O)[C@H](O)[C@@H](O)[C@@H]1O [Neotrehalose, neotrehalose]
Action [1]: −

— patent publication US7951530B2, “Cyclic maltosylmaltose, cyclic maltosymaltose-forming enzyme, their preparation and uses” (Kabushiki Kaisha Hayashibara Seibutsu Kagaku Kenkyujo, priority 2003, dated 2011)
